Measurements reported in patent publication US8119621B2, “Tetrahydro-cyclopentyl pyrazole cannabinoid modulators” (Janssen Pharmaceutica N.V., priority 2005, dated 2012).
Where “and” joins values, the source holds several entries; their conditions need not be identical. Equal entries are not always repeated. Where two headings read alike, the source gives them in different places.

How the values were obtained:
human CB1 receptor [1] = molecular target: T1, human CB1 receptor (Homo sapiens, UniProt P21554); assay: Binding assay for CB1 agonists or inverse agonists ([3H]-CP-55,940 displacement, SK-N-MC membranes); settings: for inhibition at 0.25 µM / inhibition at 1 µM / inhibition at 0.2 µM: read-out: CB1 receptor binding percent inhibition; for inhibition at 0.2 µM: test concentration 0.2 μM (footnote 2)
T1 construct: expressed in transfected cells; host or cells: SK-N-MC cells, stably transfected with pcDNA3 CB-1 (human); semi-purified membrane pellet
T1 sequence (P21554 whole entry): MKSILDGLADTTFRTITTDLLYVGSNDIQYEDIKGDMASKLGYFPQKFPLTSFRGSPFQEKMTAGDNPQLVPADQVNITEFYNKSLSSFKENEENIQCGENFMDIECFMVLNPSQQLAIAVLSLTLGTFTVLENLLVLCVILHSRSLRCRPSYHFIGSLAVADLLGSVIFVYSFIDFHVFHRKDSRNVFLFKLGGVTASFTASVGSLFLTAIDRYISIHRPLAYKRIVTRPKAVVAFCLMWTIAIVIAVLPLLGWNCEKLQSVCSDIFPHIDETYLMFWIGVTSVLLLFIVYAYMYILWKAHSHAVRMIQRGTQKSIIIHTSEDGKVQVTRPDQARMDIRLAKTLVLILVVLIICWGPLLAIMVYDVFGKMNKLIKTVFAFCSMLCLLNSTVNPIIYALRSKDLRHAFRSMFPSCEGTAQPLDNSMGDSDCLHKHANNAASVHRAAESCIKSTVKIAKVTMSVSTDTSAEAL
Protocol: (§1) The human CB1 and CB2 receptors were stably expressed in SK-N-MC cells transfected with pcDNA3 CB-1 (human) or pcDNA3 CB-2 (human). The cells were grown in T-180 cell culture flasks under standard cell culture conditions at 37° C. in a 5% CO2 atmosphere. The cells were harvested by trysinization and homogenized in a homogenization buffer (10 mM Tris, 0.2 mM MgCl2, 5 mM KCl, with protease inhibitors aprotinin, leupeptin, pepstatin A and bacitracin) and centrifuged (2000 g). The supernatant was then centrifuged in 2M sucrose (31,300 g) to produce a semi-purified membrane pellet. The pellet was resuspended in homogenization and stored at −80° C.
(§2) On the day of the assay, the pellet was thawed on ice and diluted in assay buffer (50 mM Tris-HCl, 5 mM MgCl2, 2.5 mM EDTA, 0.5 mg/mL fatty acid free bovine serum albumin, pH 7.5). […] The plate was covered and incubated for 90 minutes at 30° C. The contents were then aspirated onto a Packard Unifilter GF/C filter bottom plate prewet with 0.5% polyethyleneimine. The wells of the polypropylene plate were rinsed and aspirated seven times with a 0.9% saline-0.5% Tween 20 solution. The Unifilter plate was dried, a scintillation cocktail was added to each well and the counts representing binding were quantitated in a TopCount scintillation counter.
(§3) For compounds tested, an IC50 binding value was obtained from percent inhibition studies in which various test concentrations were used. The binding value was calculated by linear regression.

human CB2 receptor = molecular target: T2, human CB2 receptor (Homo sapiens, UniProt P34972); assay: Binding assay for CB2 agonists or inverse agonists ([3H]-CP-55,940 displacement, SK-N-MC membranes); settings: for inhibition at 0.25 µM / inhibition at 0.2 µM: read-out: CB2 receptor binding percent inhibition
T2 construct: expressed in transfected cells; host or cells: SK-N-MC cells, stably transfected with pcDNA3 CB-2 (human); semi-purified membrane pellet
T2 sequence (P34972 whole entry): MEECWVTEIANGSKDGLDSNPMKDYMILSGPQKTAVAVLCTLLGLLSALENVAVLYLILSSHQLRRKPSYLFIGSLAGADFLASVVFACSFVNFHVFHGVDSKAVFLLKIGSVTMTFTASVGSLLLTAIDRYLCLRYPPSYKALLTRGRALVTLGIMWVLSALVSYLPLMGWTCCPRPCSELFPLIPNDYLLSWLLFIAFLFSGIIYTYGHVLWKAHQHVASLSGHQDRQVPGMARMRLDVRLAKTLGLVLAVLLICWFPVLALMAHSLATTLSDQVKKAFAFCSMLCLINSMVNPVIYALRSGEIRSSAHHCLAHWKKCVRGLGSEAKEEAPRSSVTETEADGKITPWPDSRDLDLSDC
Protocol: as §1, §2, §3

human CB1 receptor [2] = molecular target: T1, human CB1 receptor; assay: Functional cell-based assay, CB1 receptor mediated change in CRE β-gal expression (adenylate cyclase activity); settings: for CB1 Receptor Functional Activity (change in functional activity): one compound concentration, vehicle treated cell = 100%
Excerpt: The CB1 and CB2 receptors are G-protein coupled receptors (GPCR), which influence cell function via the Gi-protein. These receptors modulate the activity of intracellular adenylate cyclase, which in turn produces the intracellular signal messenger cyclic-AMP (cAMP).
At baseline, or during non-ligand bound conditions, these receptors are constitutively active and tonically suppress adenylate cyclase activity. The binding of an agonist causes further receptor activation and produces additional suppression of adenylate cyclase activity. The binding of an inverse agonist inhibits the constitutive activity of the receptors and results in an increase in adenylate cyclase activity.
Test compounds were evaluated in SK-N-MC cells which, using standard transfection procedures, were stably transfected with human cDNA for pcDNA3-CRE β-gal and pcDNA3 CB1 receptor (human) or pcDNA3 CB2 receptor (human). By expressing CRE β-gal, the cells produced β-galactosidase in response to CRE promoter activation by cAMP. Cells expressing CRE β-gal and either the human CB1 or CB2 receptor will produce less β-galactosidase when treated with a CB1/CB2 agonist and will produce more β-galactosidase when treated with a CB1/CB2 inverse agonist.
The cells were grown in 96-well plates under standard cell culture conditions at 37° C. in a 5% CO2 atmosphere. After 3 days, the media was removed and a test compound in media (wherein the media was supplemented with 2 mM L-glutamine, […] sodium pyruvate, 0.1% low fatty acid FBS (fetal bovine serum) and antibiotics) was added to the cell. The plates were incubated for 30 minutes at 37° C. and the plate cells were then treated with forskolin over a 4-6 hour period, then washed and lysed. The β-galactosidase activity was quantitated using commercially available kit reagents (Promega Corp. Madison, Wis.) and a Vmax Plate Reader (Molecular Devices, Inc).
The change in β-galactosidase activity was determined by setting a vehicle treated cell's activity value at 100% and expressing the β-galactosidase activity measured in a corresponding compound treated cell as a percent of the vehicle treated cell activity.
The EC50 value for functional activity for compounds tested was calculated by linear regression and was obtained from studies in which varying compound concentrations were used.
Where an EC50 value was not obtained for a test compound, the value shown (in %) represents change in functional activity and was obtained from a study in which one compound concentration was used.

[3] = test concentration 0.25 μM (footnote 3)
[4] = test concentration 0.2 μM (footnote 2)

Structure (SMILES): C[C@H](NS(=O)(=O)/C=C/c1nn(-c2ccc(F)cc2F)c2c1CCC2Cc1cccc(F)c1)c1ccccc1 (stereo partly drawn) [Cpd 1, (2E)-2-[1-(2,4-difluoro-phenyl)-6-(3-fluoro-benzyl)-1,4,5,6-tetrahydro-cyclopentapyrazol-3-yl]-ethenesulfonic acid [(1S)-1-phenyl-ethyl]-amide]
- inhibition at 0.25 µM (human CB1 receptor [1]): 5%
- inhibition at 0.25 µM (human CB2 receptor): 14%
- EC50 (human CB1 receptor [2]; CB1 receptor functional agonist EC50, SK-N-MC cells, CRE β-gal, functional agonist): 40 nM

Structure (SMILES): O=S(=O)(/C=C/c1nn(-c2ccc(F)cc2F)c2c1CCC2Cc1cccc(F)c1)NN1CCOCC1 (centres unmarked) [Cpd 2, (2E)-2-[1-(2,4-difluoro-phenyl)-6-(3-fluoro-benzyl)-1,4,5,6-tetrahydro-cyclopentapyrazol-3-yl]-ethenesulfonic acid morpholin-4-ylamide]
- inhibition at 0.25 µM (human CB1 receptor [1]; [3]): 0%
- inhibition at 0.25 µM (human CB2 receptor; [3]): 21%
- CB1 Receptor Functional Activity (change in functional activity) (human CB1 receptor [2]): 58%

Structure (SMILES): O=S(=O)(/C=C/c1nn(-c2ccc(F)cc2F)c2c1CCC2Cc1cccc(F)c1)NN1CCCCC1 (centres unmarked) [Cpd 3, (2E)-2-[1-(2,4-difluoro-phenyl)-6-(3-fluoro-benzyl)-1,4,5,6-tetrahydro-cyclopentapyrazol-3-yl]-ethenesulfonic acid piperidin-1-ylamide]
- inhibition at 0.25 µM (human CB1 receptor [1]; [3]): 22%
- inhibition at 0.25 µM (human CB2 receptor; [3]): 0%
- EC50 (human CB1 receptor [2]): 5600 nM

Structure (SMILES): C[C@@H](NS(=O)(=O)/C=C/c1nn(-c2ccc(F)cc2F)c2c1CCC2Cc1cccc(F)c1)c1ccccc1 (stereo partly drawn) [Cpd 4, (2E)-2-[1-(2,4-difluoro-phenyl)-6-(3-fluoro-benzyl)-1,4,5,6-tetrahydro-cyclopentapyrazol-3-yl]-ethenesulfonic acid [(1R)-1-phenyl-ethyl]-amide]
- inhibition at 0.25 µM (human CB1 receptor [1]): 24%
- inhibition at 0.25 µM (human CB2 receptor): 17%
- CB1 Receptor Functional Activity (change in functional activity) (human CB1 receptor [2]): 34%

Structure (SMILES): CC12CCC(C1)C(C)(C)[C@H]2NC(=O)c1nn(-c2ccc(F)cc2F)c2c1CCC2Cc1cccc(F)c1 (stereo partly drawn) [Cpd 7, 1-(2,4-difluoro-phenyl)-6-(3-fluoro-benzyl)-1,4,5,6-tetrahydro-cyclopentapyrazole-3-carboxylic acid [(2S)-1,3,3-trimethyl-bicyclo[2.2.1]hept-2-yl]-amide]
- inhibition at 0.25 µM (human CB1 receptor [1]): 60%
- inhibition at 0.25 µM (human CB2 receptor): 70%

Structure (SMILES): C[C@@H](NS(=O)(=O)/C=C/c1nn(-c2ccc(Cl)cc2Cl)c2c1CCC2Cc1cccc(Cl)c1)C1CCCCC1 (stereo partly drawn) [Cpd 9, (2E)-2-[6-(3-chloro-benzyl)-1-(2,4-dichloro-phenyl)-1,4,5,6-tetrahydro-cyclopentapyrazol-3-yl]-ethenesulfonic acid [(1R)-1-cyclohexyl-ethyl]-amide]
- inhibition at 0.25 µM (human CB1 receptor [1]; [3]): 44%
- inhibition at 0.25 µM (human CB2 receptor; [3]): 18%

Structure (SMILES): O=S(=O)(/C=C/c1nn(-c2ccc(Cl)cc2Cl)c2c1CCC2Cc1cccc(Cl)c1)NN1CCCCC1 (centres unmarked) [Cpd 10, (2E)-2-[6-(3-chloro-benzyl)-1-(2,4-dichloro-phenyl)-1,4,5,6-tetrahydro-cyclopentapyrazol-3-yl]-ethenesulfonic acid piperidin-1-ylamide]
- inhibition at 1 µM (human CB1 receptor [1]; test concentration 1 μM (footnote 1)): 18%

Structure (SMILES): C[C@H](NS(=O)(=O)/C=C/c1nn(-c2ccc(Cl)cc2Cl)c2c1CCC2Cc1cccc(Cl)c1)c1ccccc1 (stereo partly drawn) [Cpd 11, (2E)-2-[6-(3-chloro-benzyl)-1-(2,4-dichloro-phenyl)-1,4,5,6-tetrahydro-cyclopentapyrazol-3-yl]-ethenesulfonic acid [(1S)-1-phenyl-ethyl]-amide]
- inhibition at 0.25 µM (human CB1 receptor [1]; [3]): 27%

Structure (SMILES): O=C(N[C@@H]1c2ccccc2C[C@@H]1O)c1nn(-c2ccc(F)cc2F)c2c1CCC2Cc1cccc(F)c1 (stereo partly drawn) [Cpd 12, 1-(2,4-difluoro-phenyl)-6-(3-fluoro-benzyl)-1,4,5,6-tetrahydro-cyclopentapyrazole-3-carboxylic acid [(1R,2S)-2-hydroxy-indan-1-yl]-amide]
- IC50 (human CB1 receptor [1]): 90 nM
- inhibition at 0.25 µM (human CB1 receptor [1]): 63%
- CB2 receptor binding percent inhibition (human CB2 receptor; [3]): ^(3) 31%

Structure (SMILES): O=C(c1nn(-c2ccc(F)cc2F)c2c1CCC2Cc1cccc(F)c1)N1CCN(c2ccccc2)CC1 (centres unmarked) [Cpd 17, [1-(2,4-difluoro-phenyl)-6-(3-fluoro-benzyl)-1,4,5,6-tetrahydro-cyclopentapyrazol-3-yl]-(4-phenyl-piperazin-1-yl)-methanone]
- inhibition at 1 µM (human CB1 receptor [1]): 35%
- EC50 (human CB1 receptor [2]; CB1 Receptor Functional Inverse Agonist EC50, SK-N-MC cells, CRE β-gal, forskolin): 400 nM and 100 nM

Structure (SMILES): O=C(NN1CCOCC1)c1nn(-c2ccc(F)cc2F)c2c1CCC2Cc1cccc(F)c1 (centres unmarked) [Cpd 22, 1-(2,4-difluoro-phenyl)-6-(3-fluoro-benzyl)-1,4,5,6-tetrahydro-cyclopentapyrazole-3-carboxylic acid morpholin-4-ylamide]
- inhibition at 0.25 µM (human CB1 receptor [1]; [3]): 14%
- inhibition at 0.25 µM (human CB2 receptor; [3]): 0%

Structure (SMILES): O=C(c1nn(-c2ccc(F)cc2F)c2c1CCC2Cc1cccc(F)c1)N1CCOCC1 (centres unmarked) [Cpd 23, [1-(2,4-difluoro-phenyl)-6-(3-fluoro-benzyl)-1,4,5,6-tetrahydro-cyclopentapyrazol-3-yl]-morpholin-4-yl-methanone]
- inhibition at 0.25 µM (human CB1 receptor [1]; [3]): 0%
- inhibition at 0.25 µM (human CB2 receptor; [3]): 0%

Structure (SMILES): O=C(N[C@H](CO)c1ccccc1)c1nn(-c2ccc(F)cc2F)c2c1CCC2Cc1cccc(F)c1 (stereo partly drawn) [Cpd 24, 1-(2,4-difluoro-phenyl)-6-(3-fluoro-benzyl)-1,4,5,6-tetrahydro-cyclopentapyrazole-3-carboxylic acid [(1S)-2-hydroxy-1-phenyl-ethyl]-amide]
- inhibition at 0.2 µM (human CB1 receptor [1]): 0%
- inhibition at 0.2 µM (human CB2 receptor; [4]): 0%

Structure (SMILES): O=C(N[C@@H](CO)Cc1ccccc1)c1nn(-c2ccc(F)cc2F)c2c1CCC2Cc1cccc(F)c1 (stereo partly drawn) [Cpd 25, 1-(2,4-difluoro-phenyl)-6-(3-fluoro-benzyl)-1,4,5,6-tetrahydro-cyclopentapyrazole-3-carboxylic acid [(1R)-1-benzyl-2-hydroxy-ethyl]-amide]
- inhibition at 0.2 µM (human CB1 receptor [1]): 23%
- inhibition at 0.2 µM (human CB2 receptor; [4]): 31%

Structure (SMILES): O=C(N[C@@H](CCl)c1ccccc1)c1nn(-c2ccc(F)cc2F)c2c1CCC2Cc1cccc(F)c1 (stereo partly drawn) [Cpd 26, 1-(2,4-difluoro-phenyl)-6-(3-fluoro-benzyl)-1,4,5,6-tetrahydro-cyclopentapyrazole-3-carboxylic acid [(1R)-2-chloro-1-phenyl-ethyl]-amide]
- inhibition at 0.2 µM (human CB1 receptor [1]): 24%
- inhibition at 0.2 µM (human CB2 receptor; [4]): 32%

Structure (SMILES): O=C(N[C@H](CCl)Cc1ccccc1)c1nn(-c2ccc(F)cc2F)c2c1CCC2Cc1cccc(F)c1 (stereo partly drawn) [Cpd 27, 1-(2,4-difluoro-phenyl)-6-(3-fluoro-benzyl)-1,4,5,6-tetrahydro-cyclopentapyrazole-3-carboxylic acid [(1S)-1-benzyl-2-chloro-ethyl]-amide]
- inhibition at 0.2 µM (human CB1 receptor [1]): 14%
- inhibition at 0.2 µM (human CB2 receptor; [4]): 22%

Structure (SMILES): O=C(NN1CCCCC1)c1nn(-c2ccc(Cl)cc2Cl)c2c1CC/C2=C\c1ccc(F)cc1 [Cpd 28, (6E)-1-(2,4-dichloro-phenyl)-6-(4-fluoro-benzylidene)-1,4,5,6-tetrahydro-cyclopentapyrazole-3-carboxylic acid piperidin-1-ylamide]
- IC50 (human CB1 receptor [1]): 60 nM
- CB1 receptor binding percent inhibition (human CB1 receptor [1]; 0.2 µM): 0.06, ^(2) 68%
- CB2 receptor binding percent inhibition (human CB2 receptor; [4]): ^(2) 4%
